What is called IC50 is the concentration that gives 50% inhibition.

The target in assay [1] is T1, Recombinant human TDO (rhTDO) (Homo sapiens, UniProt P48775).
T1 construct: made in house
The assay is described as follows: Enzyme assay for TDO inhibition. The assay is classed as biochemical. The settings on record: 37 °C, 45 min. The procedure: Recombinant human IDO1 and TDO were expressed and purified according to the reported procedures. The assay was performed according to the literature: A standard reaction mixture (100 µL) containing 100 mM potassium phosphate buffer (pH 6.5), 40 mM ascorbic acid (neutralized with NaOH), 200 µg/mL catalase, 20 µM methylene blue and 0.05 µM rhIDO1 or rhTDO was added to the solution containing the substrate L-tryptophan and the test sample at a determined concentration. The reaction was carried out at 37 °C for 45 min and stopped by adding 20 µL of 30% (w/v) trichloroacetic acid. After heating at 65 °C for 15 min, 100 µL of 2% (w/v) p-dimethylaminobenzaldehyde in acetic acid was added to each well. The yellow pigment derived from kynurenine was measured at 492 nm using a SYNERGY-H1 microplate reader (Biotek Instruments, Inc., Winooski, VT, USA). IC50 was analyzed using the GraphPad Prism 8.0 software (GraphPad Software, San Diego, CA, USA).

Assay [2] concerns the target T2, Recombinant human IDO1 (rhIDO1) (Homo sapiens, UniProt P14902).
T2 construct: made in house
Kind of assay: Enzyme assay for IDO1 inhibition. The assay is classed as biochemical. The settings on record: rhIDO1 enzyme assay; for IC50: 37 °C, 45 min.

T1 sequence (P48775 whole entry): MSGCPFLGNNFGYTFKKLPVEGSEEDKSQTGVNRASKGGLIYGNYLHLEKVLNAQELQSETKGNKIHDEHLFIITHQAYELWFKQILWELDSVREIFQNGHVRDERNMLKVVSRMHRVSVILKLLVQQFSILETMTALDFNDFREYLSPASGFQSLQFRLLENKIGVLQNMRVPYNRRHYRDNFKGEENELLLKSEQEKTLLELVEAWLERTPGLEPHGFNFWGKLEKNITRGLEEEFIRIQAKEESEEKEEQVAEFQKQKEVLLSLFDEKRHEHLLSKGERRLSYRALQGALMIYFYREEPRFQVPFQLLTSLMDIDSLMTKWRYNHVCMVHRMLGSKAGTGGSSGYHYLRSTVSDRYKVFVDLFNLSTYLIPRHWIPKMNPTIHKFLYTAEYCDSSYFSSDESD
T2 sequence (P14902 whole entry): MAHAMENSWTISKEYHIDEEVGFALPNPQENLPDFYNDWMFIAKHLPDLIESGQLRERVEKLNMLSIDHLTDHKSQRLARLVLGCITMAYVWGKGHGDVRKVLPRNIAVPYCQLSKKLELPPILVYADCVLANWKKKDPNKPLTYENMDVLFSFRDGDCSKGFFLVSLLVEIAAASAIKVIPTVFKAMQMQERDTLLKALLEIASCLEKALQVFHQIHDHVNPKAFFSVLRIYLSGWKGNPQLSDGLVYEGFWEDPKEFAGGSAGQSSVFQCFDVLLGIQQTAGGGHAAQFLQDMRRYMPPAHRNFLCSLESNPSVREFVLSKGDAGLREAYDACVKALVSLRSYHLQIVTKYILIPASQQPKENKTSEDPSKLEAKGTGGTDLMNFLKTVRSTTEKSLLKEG

For `CCOC(=O)CC(c1ccc(N2CC(C)CC(C)C2)c(NC(=O)Nc2ccccc2)c1)C(F)(F)F` (centres unmarked) [g1, 3-[4-(3,5-dimethylpiperidin-1-yl)-3-(3-phenylureido)-phenyl]-4,4,4-trifluorobutyric Acid Ethyl Ester], the IC50 in assay [1] and in assay [2] was greater than 100 µM each time.
As to `CCOC(=O)CC(c1ccc(N2CC(C)CC(C)C2)c(NC(=O)Nc2ccc(C)cc2)c1)C(F)(F)F` (centres unmarked) [g2, 3-[4-(3,5-dimethylpiperidin-1-yl)-3-(3-p-tolylureido)phenyl]-4,4,4-trifluorobutyric Acid Ethyl Ester], the IC50 in assay [1] and in assay [2] was greater than 100 µM in each case.
Consider `CCOC(=O)CC(c1ccc(N2CC(C)CC(C)C2)c(NC(=O)Nc2ccc(Cl)cc2)c1)C(F)(F)F` (centres unmarked) [g3, 3-[3-[3-(4-chlorophenyl)-ureido]-4-(3,5-dimethylpiperidin-1-yl)-phenyl]-4,4,4-trifluorobutyric Acid Ethyl Ester], for which the IC50 in assay [1] and in assay [2] was greater than 100 µM in each case.
With `Cc1ccc(NC(=O)Nc2cc(C(CC(=O)O)C(F)(F)F)ccc2N2CC(C)CC(C)C2)cc1` (centres unmarked) [i2, 3-[4-(3,5-dimethylpiperidin-1-yl)-3-(3-p-tolylureido)phenyl]-4,4,4-trifluorobutyric Acid], the IC50 in assay [1] is greater than 100 µM. In assay [2], the “IDO1 inhibitory activity (in words)” value was “more potent IDO1 inhibitory activity than the unsubstituted i1” and the IC50 is 8.61 µM.
The like results for `CC1CC(C)CN(c2ccc(C(CC(=O)O)C(F)(F)F)cc2NC(=O)Nc2ccc(Cl)cc2)C1` (centres unmarked) [i3, 3-[3-[3-(4-chlorophenyl)ureido]-4-(3,5-dimethylpiperidin-1-yl)-phenyl]-4,4,4-trifluorobutyric Acid] were, in that order, greater than 100 µM, “more potent IDO1 inhibitory activity than the unsubstituted i1” and 5.69 µM.
Taken in the same sequence, the figures for `CC1CC(C)CN(c2ccc(C(CC(=O)O)C(F)(F)F)cc2NC(=O)NC2CCCCC2)C1` (centres unmarked) [i4, 3-[3-(3-cyclohexylureido)-4-(3,5-dimethylpiperidin-1-yl)phenyl]-4,4,4-trifluorobutyric Acid] were greater than 100 µM, “loss of inhibition” and greater than 100 µM.
The like results for `CCCCNC(=O)Nc1cc(C(CC(=O)O)C(F)(F)F)ccc1N1CC(C)CC(C)C1` (centres unmarked) [i5, 3-[3-(3-butylureido)-4-(3,5-dimethylpiperidin-1-yl)-phenyl]-4,4,4-trifluorobutyric Acid] were, in that order, greater than 100 µM, “loss of inhibition” and greater than 100 µM.
With `Cc1ccccc1NC(=O)Nc1cc(C(CC(=O)O)C(F)(F)F)ccc1N1CC(C)CC(C)C1` (centres unmarked) [i6, 3-[4-(3,5-dimethylpiperidin-1-yl)-3-(3-o-tolylureido)phenyl]-4,4,4-trifluorobutyric Acid], the IC50 in assay [1] was greater than 100 µM. In assay [2], the “IDO1 inhibitory activity (in words)” value is listed as “lost all IDO1 inhibitory activity” and the IC50 was greater than 100 µM.
For `Cc1cccc(NC(=O)Nc2cc(C(CC(=O)O)C(F)(F)F)ccc2N2CC(C)CC(C)C2)c1` (centres unmarked) [i7, 3-[4-(3,5-dimethylpiperidin-1-yl)-3-(3-m-tolylureido)phenyl]-4,4,4-trifluorobutyric Acid], the IC50 in assay [1] and in assay [2] was greater than 100 µM each time. In addition, the “IDO1 inhibitory activity (in words)” value in assay [2] was “lost all IDO1 inhibitory activity”.
Regarding `CC1CC(C)CN(c2ccc(C(CC(=O)O)C(F)(F)F)cc2NC(=O)Nc2ccccc2Cl)C1` (centres unmarked) [i8, 3-[3-[3-(2-chlorophenyl)ureido]-4-(3,5-dimethylpiperidin-1-yl)-phenyl]-4,4,4-trifluorobutyric Acid], the IC50 in assay [1] and in assay [2] was greater than 100 µM each time. Besides, in assay [2], the “IDO1 inhibitory activity (in words)” value was “lost all IDO1 inhibitory activity”.
On to `CC1CC(C)CN(c2ccc(C(CC(=O)O)C(F)(F)F)cc2NC(=O)Nc2cccc(Cl)c2)C1` (centres unmarked) [i9, 3-[3-[3-(3-chlorophenyl)ureido]-4-(3,5-dimethylpiperidin-1-yl)-phenyl]-4,4,4-trifluorobutyric Acid], for which the IC50 in assay [1] is greater than 100 µM. Besides, in assay [2], the “IDO1 inhibitory activity (in words)” value is on record as “lost all IDO1 inhibitory activity” and the IC50 was greater than 100 µM.
Take `CC1CC(C)CN(c2ccc(C(CC(=O)O)C(F)(F)F)cc2NC(=O)Nc2ccccc2C#N)C1` (centres unmarked) [i10, 3-[3-[3-(2-cyanophenyl)ureido]-4-(3,5-dimethylpiperidin-1-yl)-phenyl]-4,4,4-trifluorobutyric Acid]: the IC50 in assay [1] is greater than 100 µM. For the same molecule, in assay [2], the “IDO1 inhibitory activity (in words)” value is “lost all IDO1 inhibitory activity” and the IC50 is greater than 100 µM.
For `CC1CC(C)CN(c2ccc(C(CC(=O)O)C(F)(F)F)cc2NC(=O)Nc2cccc(C#N)c2)C1` (centres unmarked) [i11, 3-[3-[3-(3-cyanophenyl)ureido]-4-(3,5-dimethylpiperidin-1-yl)-phenyl]-4,4,4-trifluorobutyric Acid], the IC50 in assay [1] was greater than 100 µM. In addition, in assay [2], the “IDO1 inhibitory activity (in words)” value is “lost all IDO1 inhibitory activity” and the IC50 is greater than 100 µM.
As for `COc1ccccc1NC(=O)Nc1cc(C(CC(=O)O)C(F)(F)F)ccc1N1CC(C)CC(C)C1` (centres unmarked) [i13, 3-{4-(3,5-dimethylpiperidin-1-yl)-3-[3-(2-methoxyphenyl)ureido]-phenyl}-4,4,4-trifluorobutyric Acid], the IC50 in assay [1] and in assay [2] was greater than 100 µM each time. Further, in assay [2], the “IDO1 inhibitory activity (in words)” value is “lost all IDO1 inhibitory activity”.
On to `COc1cccc(NC(=O)Nc2cc(C(CC(=O)O)C(F)(F)F)ccc2N2CC(C)CC(C)C2)c1` (centres unmarked) [i14, 3-{4-(3,5-dimethylpiperidin-1-yl)-3-[3-(3-methoxyphenyl)ureido]-phenyl}-4,4,4-trifluorobutyric Acid], for which the IC50 in assay [1] is greater than 100 µM. Further, in assay [2], the “IDO1 inhibitory activity (in words)” value was “lost all IDO1 inhibitory activity” and the IC50 was greater than 100 µM.
Regarding `COc1ccc(NC(=O)Nc2cc(C(CC(=O)O)C(F)(F)F)ccc2N2CC(C)CC(C)C2)cc1` (centres unmarked) [i15, 3-{4-(3,5-dimethylpiperidin-1-yl)-3-[3-(4-methoxyphenyl)ureido]-phenyl}-4,4,4-trifluorobutyric Acid], the IC50 was greater than 100 µM in assay [1] and 1.62 µM in assay [2]. In addition, the “IDO1 inhibitory activity (in words)” value in assay [2] is given as “more potent IDO1 inhibitory activity than the unsubstituted i1”.
As to `CC1CC(C)CN(c2ccc(C(CC(=O)O)C(F)(F)F)cc2NC(=O)Nc2ccc(F)cc2F)C1` (centres unmarked) [i16, 3-[3-[3-(2,4-difluorophenyl)ureido]-4-(3,5-dimethylpiperidin-1-yl)-phenyl]-4,4,4-trifluorobutyric Acid], the IC50 in assay [1] and in assay [2] was greater than 100 µM each time. Besides, the “IDO1 inhibitory activity (in words)” value in assay [2] is given as “no inhibitory activities”.
With `CC1CC(C)CN(c2ccc(C(CC(=O)O)C(F)(F)F)cc2NC(=O)Nc2ccc(Cl)cc2Cl)C1` (centres unmarked) [i17, 3-[3-[3-(2,4-dichlorophenyl)ureido]-4-(3,5-dimethylpiperidin-1-yl)-phenyl]-4,4,4-trifluorobutyric Acid], the IC50 in assay [1] is greater than 100 µM. Also, in assay [2], the “IDO1 inhibitory activity (in words)” value is “no inhibitory activities” and the IC50 was greater than 100 µM.
Turning to `CC1CC(C)CN(c2ccc(C(CC(=O)O)C(F)(F)F)cc2NC(=O)Nc2ccc(F)cc2)C1` (centres unmarked) [i18, 3-{4-(3,5-dimethylpiperidin-1-yl)-3-[3-(4-fluorophenyl)ureido]-phenyl}-4,4,4-trifluorobutyric Acid], the IC50 in assay [1] is greater than 100 µM; in assay [2], 5.48 µM.

For the origin of these results see paper PMC7144934, “Design, Synthesis and Biological Evaluation of Phenyl Urea Derivatives as IDO1 Inhibitors” (Molecules, 2020).
